# Assay results as given in US10844091B2 (priority 2017, dated 2020).
# Marks after values point to notes of the source that are not given here. Non-standard residues stand in square brackets, D forms with d.
# Legend:
# [1] = test system: rat models with Alzheimer's disease; test: Extrapolation escape (EE) test, scopolamine-induced Alzheimer's disease model; format: in vivo
# Procedure: White random-bred adult male rats weighing 200-240 g were used. Groups of 7 animals per group were formed. 1st group—control, 2nd—pathology, 3rd—comparator drug, 4th-6th—neuropeptides.
# (§1) Scopolamine was administered i.p. to the animals in all groups except for the control at a 1 mg/kg dose daily, once a day for 27 days. From the 28th day on, the animals in groups 2 and 3 were administered the comparator drug and the claimed preparation respectively over the course of 10 days. The drugs were administered daily, once a day.
# (§2) The tetrapeptides were administered i.n at a 0.1 mg/kg dose. The animals in the pathology group received 0.9% sodium chloride solution i.n. and i.p. as a placebo.
# The OF and EE tests were conducted on the 1st day, PST—on the 2nd day, CPAR—on the 1st and 10th day post treatment with the preparations. […] The antiamnesic action (AA) in the CPAR test was calculated using Butler's formula [K. S. Radionova. […] After that, the animals were removed from the experiment by administering a narcotic, followed by decapitation. The brain was extracted and weighed, and the brain weight coefficient (BWC) was calculated. Immediately after extraction, the brain was frozen in liquid nitrogen and used in subsequent biochemical and histochemical studies. Glucose levels in whole arterial (common carotid artery) and venous (venous cerebral sinus) blood were determined by the glucose oxidase test, the difference in the arterial-venous glucose content was calculated (glucose consumption marker). The levels of average weight molecules—the toxic products of cell biodegradation damaged during the disease (nucleoside derivatives, peptoids, glucuronic acid salts, etc.) in the blood serum (AWM) were calculated [A. N. Kovalevsky. Notes on the screening method of determination average weight molecules/A. N. Kovalevsky, O. Ye. Nifantiev//Lab. Science. […] 35-39].
# [2] = Arteriovenous glucose difference in rat models with Alzheimer's disease; format: in vivo; conditions: tetrapeptide 0.1 mg/kg; as a trend
# Procedure: The drugs were administered daily, once a day.
# The OF and EE tests were conducted on the 1st day, PST—on the 2nd day, CPAR—on the 1st and 10th day post treatment with the preparations. The CPAR proficiency criterium—remaining in the light area of the CPAR device during at least 180 sec. The antiamnesic action (AA) in the CPAR test was calculated using Butler's formula [K. S. Radionova. Original nootropic preparation Noopept ameliorates memory loss caused by the M- and N-choline receptor blockade in rats/K. S. Radionova, A. P. Bel'nik, R. U. Ostrovskaya//Bul experim. Biology and Medicine.—2008.—T.146, No 1.—pp 65-68]. After that, the animals were removed from the experiment by administering a narcotic, followed by decapitation. The brain was extracted and weighed, and the brain weight coefficient (BWC) was calculated. […] Glucose levels in whole arterial (common carotid artery) and venous (venous cerebral sinus) blood were determined by the glucose oxidase test, the difference in the arterial-venous glucose content was calculated (glucose consumption marker). The levels of average weight molecules—the toxic products of cell biodegradation damaged during the disease (nucleoside derivatives, peptoids, glucuronic acid salts, etc.) in the blood serum (AWM) were calculated [A. N. Kovalevsky. […]
# butyrylcholinesterase = conditions: tetrapeptide 0.1 mg/kg
# Procedure: as §1, §2
# (§3) A procedure for the isolation of noradrenaline (together with adrenaline), dopamine, 5-hydroxy tryptamine and histamine from the same tissue sample using a single column of strongly acidic cation exchange resin 1C. […] Determination of ATP content in tissue//Methods for biochemical research/Edited by prof. M. I. Prokhorova, Leningrad, pub.
# acetylcholinesterase = acetylcholinesterase (Rattus norvegicus, UniProt P37136); conditions: donepezil 1 mg/kg, tetrapeptide 0.1 mg/kg
# Procedure: as §1, §2, §3
# [3] = test system: intact rats and animals with reserpine-induced depression; test: Popsolt swim test, intact rats and animals with reserpine-induced depression; format: in vivo, rat; conditions: for Number of immobilization episodes / Total duration of immobilization / Latent immobilization period: imipramine 15 mg/kg i.p., tetrapeptide (LYS) 0.02 mg/kg i.n.
# Procedure: The experiment was conducted on 16 white random-bred adult male rats weighing:
# 180-220 g. The antidepressant activity of tetrapeptide (LYS), a neuroprotector, at a 0.02 mg/kg dose intranasally (i.n.) was evaluated. […] The experiment was conducted in two stages. […] 25-30 min. prior to the start of the experiment, the animals were administered their respective drugs. The animals in the control group were administered 0.9% NaCl solution i.p. and i.n. in the volume equal to the volume of the medications. After that, the animals of all groups were placed in the open field (OF) for 3 min., and their locomotor (number of crossed squares), orientation, and exploratory (number of upright positions and explored openings) activity as well as their emotional reactions (fecal boluses, urination, grooming) were evaluated. The indicators of depression in the animals (latent immobilization period, the number of such instances, and their total duration) were evaluated in the Popsolt swim test (PST) over 6 min. In the next 2 days, all the medications were administered at the same dose once a day; the last administration—30 min before the depressogenic sympatholytics of reserpine. Reserpine was administered on the 3rd day (2nd stage of the experiment) at a 4 mg/kg dose i.p. (as a suspension stabilized with Tween-80). Animals in all 3 groups were evaluated 6-7 hr. later in the OF and PST.
# Test results were statistically processed. When the data distribution was normal, the parametric Student's t-distribution test was applied, when it was absent, the non-parametric MannWhitney U-test was used. When processing the results in an alternative form (presence/absence of the indicator), Fisher's angular transformation φ was applied. Wilcoxon paired t-criterium test was used for the intra-group statistical evaluation of the changed in the animal test results prior and post simulated depression. The results were considered to be statistically significant when p<0.05.
# [4] = 3 min test, scopolamine 1 mg/kg i.p. 27 days, donepezil 1 mg/kg i.p. 10 days, peptide (LYS) 0.1 mg/kg i.n. 10 days
# [5] = R - reserpine-induced depression
# [6] = reserpine-induced depression, p<0.05
# Chain of acetylcholinesterase (P37136 32-614): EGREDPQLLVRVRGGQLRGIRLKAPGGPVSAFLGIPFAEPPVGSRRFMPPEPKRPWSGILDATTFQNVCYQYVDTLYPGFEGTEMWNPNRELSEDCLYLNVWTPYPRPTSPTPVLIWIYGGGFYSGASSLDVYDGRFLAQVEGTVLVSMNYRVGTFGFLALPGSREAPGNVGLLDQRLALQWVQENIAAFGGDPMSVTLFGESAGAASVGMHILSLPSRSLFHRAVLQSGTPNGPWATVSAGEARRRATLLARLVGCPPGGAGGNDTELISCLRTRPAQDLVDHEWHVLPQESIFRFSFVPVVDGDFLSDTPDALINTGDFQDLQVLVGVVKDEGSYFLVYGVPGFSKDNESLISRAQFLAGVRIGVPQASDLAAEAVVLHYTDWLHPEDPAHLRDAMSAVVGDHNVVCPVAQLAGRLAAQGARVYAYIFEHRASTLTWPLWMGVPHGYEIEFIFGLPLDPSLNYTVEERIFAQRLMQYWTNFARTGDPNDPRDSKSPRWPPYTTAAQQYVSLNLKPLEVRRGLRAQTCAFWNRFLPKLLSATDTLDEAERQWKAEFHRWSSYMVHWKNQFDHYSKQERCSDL
substance,measurement,setting,value
"acetyl-D-Lys-Lys-Arg-Arg-amide (Ac-[dK]KRR-NH2; SMILES CC(=O)N[C@H](CCCCN)C(=O)N[C@@H](CCCCN)C(=O)N[C@@H](CCCNC(=N)N)C(=O)N[C@@H](CCCNC(=N)N)C(N)=O) [tetrapeptide (LYS), peptide acetyl-X-ARG-ARG-amide, X = D- and L-amino acid residues of lysine]",reduction of escape time compared to the pathology group,"[1]; 0.1 mg/kg i.n. 10 days, p<0.05",3.8 times
same,escape time difference versus donepezil,"[1]; 0.1 mg/kg i.n. vs donepezil 1 mg/kg, p<0.05",41.7%
same,% of animals succeeded,[1]; [4],100%
same,Escape time,[1]; [4],11.00 ± 3.07*^ sec.
same,glucose utilization in the brain,[2],improved glucose utilization
same,butyrylcholinesterase activity in the brain,butyrylcholinesterase,significantly increases
same,AChE activity in synapsosomes and in the whole brain homogenate,acetylcholinesterase,reduces
same,Number of immobilization episodes,[3]; I - intact animals,1.2 ± 0.6
same,Total duration of immobilization,[3]; I - intact animals,4.0 ± 2.7 s
same,Latent immobilization period,"[3]; I - intact animals, 6 min",214.6 ± 66.7 s
same,Latent immobilization period,[3]; [5],170.8 ± 34.1 s
same,Number of immobilization episodes,[3]; [5],3.0 ± 0.38
same,Total duration of immobilization,[3]; [5],7.8 ± 2.3 s
same,"Latent immobilization period, % change reserpine-induced depression vs. intact animals",[3]; R vs I,(−20.4)^ %
same,"Number of immobilization episodes, % change reserpine-induced depression vs. intact animals",[3]; R vs I,(+150.0%)
same,"Total duration of immobilization, % change reserpine-induced depression vs. intact animals",[3]; R vs I,(+95.0%)
same,increase of the latent immobilization period compared to the control,"[3]; intact animals, p<0.05",3.5 times
same,reduction of the number of immobilization periods compared to the control,"[3]; intact animals, p<0.05",11.5 times
same,reduction of total duration of immobilization compared to the control,"[3]; intact animals, p<0.05",16.1 times
same,increase of the latent immobilization period compared to the control,[3]; [6],4.5 times
same,reduction of the number of immobilization episodes compared to the control,[3]; [6],2.6 times
same,reduction of total duration of immobilization compared to the control,[3]; [6],3.6 times
